According to patent US7323441B2, “Use of lupin conglutin for the treatment of type II diabetes” (Indena S.p.A., priority 2003, dated 2008):

Test system: glucose plasma levels
Assay: Hypoglycemizing activity in rats after oral glucose administration (2 g/kg)
Format: in vivo, rat
Settings: 50 mg/kg os, 30 min before glucose 2 g/kg os; male CD rats; AUC 0 to 90 min; mean±M.S.E.
Method: Male CD strain rats, of the starting weight 275-300 g, were used. The animals were housed in makrolon cages in environment with automatic control of light (12 hour light/12 hour darkness cycles), temperature (21±1° C.) and humidity (60±5%).
Lupin conglutin gamma prepared as reported in Example 2 was used. 100 rats (divided into in 5 groups of […] animals each) were pre-treated (time−30 min) with: • Group 1: carrier (1% carboxymethylcellulose [CMC]; 2 ml/kg os) • Group 2: lupin conglutin gamma (50 mg/kg os in 1% CMC) • Group 3: lupin conglutin gamma (100 mg/kg os in 1% CMC) • Group 4: lupin conglutin gamma (200 mg/kg os in 1% CMC) • Group 5: metformin (50 mg/kg os in 1% CMC) […]
Immediately before the glucose administration (time 0 min) and 30, 60 and 90 min after the glucose administration, all the animals (n=5 rats for each time) were anaesthetized with sodium thiopental (50 mg/kg i.p.) and 5 ml of blood was drawn from the vena cava. Blood samples were collected in syringes containing EDTA (7.5 mM) as anticoagulant, and immediately subjected to centrifugation (2000 g×10 min at 4° C.) to obtain the plasma necessary for the enzymatic quantitation of glucose.
The quantitation of the glucose in rat plasma was carried out in triplicate by enzymatic assay (absorbance at 505 nm) and the glucose concentration was expressed in mg/dl. […]

CN(C)C(=N)N=C(N)N [metformin]
area under the curve (AUC) of glucose plasma levels: 1565±201
